Patent US20250064846A1, “TREATMENT AND PREVENTION OF TRIGEMINAL NEURALGIA” (THE JOHNS HOPKINS UNIVERSITY, priority 2022, published 2025)

Legend:
[1] = tested on: NRF2; assay: NRF2/ARE Luciferase Reporter Assay (HEK293 stable cell line); type: cell-based, human; conditions: 6 hrs exposure to varying concentrations, relative to vehicle, normalized to total protein
Procedure: NRF2/ARE Luciferase Reporter Assay NRF2 activity was monitored with a reporter cell line in which changes in NRF2 activity are coupled to the expression of firefly luciferase (NRF2/ARE Luciferase Reporter HEK293 Stable Cell Line). Luciferase activity was quantified with the Luciferase Assay System as per the manufacturer's instructions. Briefly, cells were plated at 125,000 cells/well in a 24-well plate. The following day, cells were treated with either vehicle or varying doses of sulforaphane, exemestane, or JQ-1 for 6 hours. Cells were then lysed in passive lysis buffer (Promega E1941) supplemented with protease inhibitors (Sigma). Lysates were then cleared at 16,000 g for 15 minutes at 4° C. 15 μL of each lysate was mixed with 5 μL of luciferase assay substrate (Promega). Total light was measured using a luminometer with a 10 second integration time with a delay of 2 seconds. Luciferase measurements were normalized to total protein and reported as normalized to the vehicle condition.

[2] = tested on: NRF2; assay: NRF2 stability, ubiquitination and nuclear translocation in HEK-293 cells overexpressing FLAG-KEAP1 and myc-NRF2; type: cell-based; conditions: for stabilization of NRF2 / nuclear translocation of NRF2: 10 μM for 6 hours; for nuclear translocation of NRF2: nuclear myc-NRF2 vs vehicle; for inhibition of NRF2 ubiquitination: HEK-293 cells overexpressing FLAG-KEAP1, myc-NRF2 and HA-ubiquitin
Procedure: To determine a ratio of KFAP1 to NRF2 cDNA that best mimics baseline NRF2 activity, luciferase activity was measured 48 h after transfection with varying ratios of KEAP1 to NRF2 cDNA, normalized to total protein (FIG. 21A). Luciferase expression is controlled by a promoter that contains several NRF2 binding sites and is thus a measure of NRF2 activity. A 2.5 μg KFAP1 to 1 μg NRF2 cDNA ratio returned luciferase activity to baseline and was therefore employed for subsequent biochemical studies evaluating NRF2 stability and nuclear translocation. FIGS. 21B and 21C show the quantification (FIG. 21B) and immunoblots (FIG. 21C) of myc-NRF2, GAPDH, and H2B in whole cell lysates and cytoplasmic and nuclear subcellular fractions of HEK-293 cells overexpressing FLAG-KEAP1 and myc-NRF2, treated with vehicle, 10 μM MG-132, 10 μM sulforaphane (SF), 10 μM exemestane, or 10 μM JQ-1 for 6 hours. Data are expressed as a normalized ratio of nuclear myc-NRF2 compared to the vehicle-treated condition. FIG. 21D is immunoblots of lysates (input) and myc immunoprecipitate (IP) from HEK-293 cells overexpressing FLAG-KEAP1, myc-NRF2, and HA-ubiquitin. Data are either representative of or quantified from n=3 independent experiments except in FIG. 21A, where n=1 in triplicate. In FIG. 21A, mean f SEM depicted. In FIG. 21B, median and range depicted. *=P<0.05 and ns=P>0.05 by one-way ANOVA followed by post-hoc Dunnett's test.

[3] = tested on: TRPA1; assay: Western blot for TRPA1 from maxillary nerves; type: in vivo, mouse; conditions: normalized to β-actin; vs vehicle
Description: FIGS. 15A-15H are western blots for TRPA1 (FIGS. 15A, 15C, 15E, and 15G) and graphs of relative TRPA1 expression (FIGS. 15B, 15D, 15F and 15H) from maxillary nerves of mice following constriction compared to sham surgery (FIG. 15A-15B) or treatment with sulforaphane (FIG. 15C-15D), exemestane (FIG. 15E-15F), or JQ-1 (FIG. 15G-15H), normalized to β-actin. Lanes and points represent individual mice. Median and range depicted in graphs of relative TRPA1 expression. ns=P>0.05 by two-tailed unpaired Student's t-test.
Western Blotting Western blotting was performed as previously described (See Vasavda, C. et al. Cell Chem Biol 26, 1450-1460.e7 (2019)). Briefly, tissues were homogenized at 4° C. in lysis buffer (pH 7.4 solution of 50 mM Tris-HCl, 150 mM NaCl, 0.1% SDS, 0.5% sodium deoxycholate, and 1% Triton X-100) supplemented with protease inhibitors (Sigma). When dissecting maxillary nerves for immunoblot analysis, nerves were as dissected both as proximally towards the semilunar ganglion and as distal to the skin as possible. Nerves were harvested 11 days after surgery, immediately after the final behavioral test. Lysates were then pulse sonicated and centrifuged at 16,000 g for 10 min at 4° C. Fifteen micrograms of cleared lysate were run on a 4-12% polyacrylamide Bis-Tris gradient gel in running buffer (pH 7.3 solution of 50 mM MES, 50 mM Tris Base, 0.1% SDS, 1 mM EDTA) and then transferred to a PVDF membrane. Membranes were blocked with 5% milk in TBS-T (pH 7.6 solution of 16 mM Tris-HCl, 140 mM NaCl, 0.1% Tween-20) for 1 hr at 25° C. and then incubated with primary antibodies in 3% bovine serum albumin (BSA) (w/v) in TBS-T overnight at 4° C. The following day, membranes were washed with TBS-T, and then incubated with secondary antibodies in 3% BSA (w/v) in TBS-T for 1 hr at 25° C. The following primary antibodies were used: rabbit anti-4-HNE (Abeam ab46545; 1:1.000), rabbit anti-TRPA1 (Novus Biologicals NB110-40763; 1:1,000), rabbit anti-DNP (Millipore Sigma 90451; 1:150), and mouse anti-β-actin (Santa Cruz Biotech sc-47778 HRP; 1:10,000). […]

[4] = tested on: constrictive mouse model of trigeminal neuralgia; assay: Mechanical allodynia (Von Frey filament) after constriction of the maxillary nerve; type: in vivo; conditions: i.p. daily, sulforaphane 10 mg/kg; for mechanical allodynia (analgesic effect): NRF2−/− mice, exemestane 10 mg/kg, JQ-1 40 mg/kg

Structure (SMILES) | luciferase expression in the NRF2 reporter line [1] | stabilization of NRF2 [2] | nuclear translocation of NRF2 [2] | inhibition of NRF2 ubiquitination [2] | TRPA1 expression in maxillary nerves [3] | mechanical allodynia (analgesic effect) [4] | mechanical allodynia ([4]; TRPA1−/− mice, compared with genetic deletion of TRPA1 alone)
Cc1sc2c(c1C)C(c1ccc(Cl)cc1)=N[C@@H](CC(=O)OC(C)(C)C)c1nnc(C)n1-2 [JQ-1, (S)-tert-butyl 2-(4-(4-chlorophenyl)-2,3,9-trimethyl-6H-thieno[3,2-f][1,2,4]triazolo[4,3-a][1,4]diazepin-6-yl)acetate] | did not stimulate luciferase expression | neither stabilizes NRF2 | does not | nor inhibits its ubiquitination | did not affect TRPA1 expression | lowers | –
C=C1C[C@@H]2[C@H](CC[C@]3(C)C(=O)CC[C@@H]23)[C@@]2(C)C=CC(=O)C=C12 [exemestane, 6-methylenandrosta-1,4-diene-3,17-dione] | similarly increased luciferase expression | both sulforaphane and exemestane do | promote nuclear translocation of NRF2 | both sulforaphane and exemestane do | did not affect TRPA1 expression | lose their analgesic effects | –
C[S+]([O-])CCCCN=C=S (stereo not shown) [sulforaphane, 1-isothiocyanato-4-(methanesulfinyl)butane] | dose-dependently increased luciferase expression | both sulforaphane and exemestane do | promote nuclear translocation of NRF2 | both sulforaphane and exemestane do | did not affect TRPA1 expression | lose their analgesic effects | did not lower
